Measured values from ChEMBL document CHEMBL1152844, “Synthesis and anti-HIV studies of 2- and 3-adamantyl-substituted thiazolidin-4-ones” (Eur J Med Chem, 2009).
The source made the active and inactive calls. The calls are words filed in the database; no cut-off is given here.

Tests used:
[1] = molecular target: T1, Human immunodeficiency virus type 1 reverse transcriptase (Human immunodeficiency virus 1, UniProt Q72547); assay: Activity at HIV1 non-nucleoside reverse transcriptase
[2] = molecular target: Human immunodeficiency virus type 1 reverse transcriptase (Human immunodeficiency virus 1) (UniProt Q72547); assay: Ratio of Ki to Km for HIV1 non-nucleoside reverse transcriptase
[3] = test system: Human immunodeficiency virus 2; assay: Antiviral activity against HIV2 ROD infected in human CEM cells assessed as inhibition of virus-induced cytopathicity after 4 days; assay type: functional, organism-based; details: Human immunodeficiency virus 2, ROD, CCRF-CEM, 96 h
[4] = Selectivity index, ratio of CC50 for human CEM cells to EC50 for HIV1 3B; assay type: toxicity, cell-based, CCRF-CEM; details: read-out: Ratio CC50/EC50
Human alphaherpesvirus 1 = assay: Antiviral activity against Herpes simplex virus type 1 infected in HEL cells; assay type: functional, organism-based
Human alphaherpesvirus 2 = assay: Antiviral activity against Herpes simplex virus type 2 infected in HEL cells; assay type: functional, organism-based
Vaccinia virus = assay: Antiviral activity against Vaccinia virus infected in HEL cells; assay type: functional, organism-based; details: Orthopoxvirus vaccinia
[5] = test system: Vesicular stomatitis virus; assay: Antiviral activity against Vesicular stomatitis virus infected in HEL cells; assay type: functional, organism-based
Human respirovirus 3 = assay: Antiviral activity against Parainfluenza virus type 3 infected in african green monkey Vero cells; assay type: functional, organism-based
[6] = test system: Mammalian orthoreovirus 1; assay: Antiviral activity against Reovirus 1 infected in african green monkey Vero cells; assay type: functional, organism-based
Sindbis virus = assay: Antiviral activity against Sindbis virus infected in african green monkey Vero cells; assay type: functional, organism-based
Coxsackievirus B4 [7] = assay: Antiviral activity against Coxsackievirus B4 infected in african green monkey Vero cells; assay type: functional, organism-based
Punta Toro virus = assay: Antiviral activity against Punta Toro virus infected in african green monkey Vero cells; assay type: functional, organism-based
[8] = test system: Vesicular stomatitis virus; assay: Antiviral activity against Vesicular stomatitis virus infected in human HeLa cells; assay type: functional, organism-based
[9] = test system: Respiratory syncytial virus; assay: Antiviral activity against Respiratory syncytial virus infected in human HeLa cells; assay type: functional, organism-based
Coxsackievirus B4 [10] = assay: Antiviral activity against Coxsackievirus B4 infected in human HeLa cells; assay type: functional, organism-based
Feline coronavirus = assay: Antiviral activity against Feline coronavirus infected in crandel feline kidney cells; assay type: functional, organism-based
Influenza A virus [11] = assay: Antiviral activity against Influenza virus type A H1N1 infected in MDCK cells; assay type: functional, organism-based
Influenza A virus [12] = assay: Antiviral activity against Influenza virus type A H3N2 infected in MDCK cells; assay type: functional, organism-based
Influenza B virus = assay: Antiviral activity against Influenza virus type B infected in MDCK cells; assay type: functional, organism-based
[13] = molecular target: T1, Human immunodeficiency virus type 1 reverse transcriptase; assay: Inhibition of HIV1 3B reverse transcriptase after 30 mins
[14] = Inhibition of HIV2 ROD reverse transcriptase after 30 mins; design: species or system Human immunodeficiency virus 2
[15] = test system: Human immunodeficiency virus 1; assay: Antiviral activity against HIV1 3B infected in human CEM cells assessed as inhibition of virus-induced cytopathicity after 4 days; assay type: functional, organism-based; details: Human immunodeficiency virus 1, 3B, CCRF-CEM, 96 h
CCRF-CEM = assay: (§1) Cytotoxicity against HIV-infected human CEM cells; assay type: cell-based; details: ccrf-cem
[16] = as §1; assay type: cell-based, CCRF-CEM; details: HIV-infected CEM (CCRF-CEM) cells

Cc1cc(C)nc(N2C(=O)CSC2C23CC4CC(CC(C4)C2)C3)c1 (racemic)
Ki [1]: 12 µM
Ratio [2]: 5.5
EC50 [3]: > 12 µM
selectivity ratio [4]: 120
Activity (Human alphaherpesvirus 1): inactive
Activity (Human alphaherpesvirus 2): inactive
Activity (Vaccinia virus): inactive
Activity [5]: inactive
Activity (Human respirovirus 3): inactive
Activity [6]: inactive
Activity (Sindbis virus): inactive
Activity (Coxsackievirus B4 [7]): inactive
Activity (Punta Toro virus): inactive
Activity [8]: inactive
Activity [9]: inactive
Activity (Coxsackievirus B4 [10]): inactive
Activity (Feline coronavirus): inactive
Activity (Influenza A virus [11]): inactive
Activity (Influenza A virus [12]): inactive
Activity (Influenza B virus): inactive

Cc1cc(C)nc(N2C(=O)CS[C@@H]2C23CC4CC(CC(C4)C2)C3)c1
IC50 [13]: 13.4 µM
IC50 [14]: > 600 µM
Activity (Human alphaherpesvirus 1): inactive
Activity (Human alphaherpesvirus 2): inactive
Activity (Vaccinia virus): inactive
Activity [5]: inactive
Activity (Human respirovirus 3): inactive
Activity [6]: inactive
Activity (Sindbis virus): inactive
Activity (Coxsackievirus B4 [7]): inactive
Activity (Punta Toro virus): inactive
Activity [8]: inactive
Activity [9]: inactive
Activity (Coxsackievirus B4 [10]): inactive
Activity (Feline coronavirus): inactive
Activity (Influenza A virus [11]): inactive
Activity (Influenza A virus [12]): inactive
Activity (Influenza B virus): inactive

O=C1CSC(c2c(F)cccc2F)N1CC12CC3CC(CC(C3)C1)C2 (stereo unspecified)
IC50 [13]: 495 µM
EC50 [15]: 11 µM
EC50 [3]: 35.7 µM
CC50 (CCRF-CEM): > 275 µM
selectivity ratio [4]: > 25
IC50 [14]: > 600 µM
Activity (Human alphaherpesvirus 1): inactive
Activity (Human alphaherpesvirus 2): inactive
Activity (Vaccinia virus): inactive
Activity [5]: inactive
Activity (Human respirovirus 3): inactive
Activity [6]: inactive
Activity (Sindbis virus): inactive
Activity (Coxsackievirus B4 [7]): inactive
Activity (Punta Toro virus): inactive
Activity [8]: inactive
Activity [9]: inactive
Activity (Coxsackievirus B4 [10]): inactive
Activity (Feline coronavirus): inactive
Activity (Influenza A virus [11]): inactive
Activity (Influenza A virus [12]): inactive
Activity (Influenza B virus): inactive

O=C1CSC(c2c(Cl)cccc2Cl)N1CC12CC3CC(CC(C3)C1)C2 (stereo unspecified)
IC50 [13]: 42.9 µM
EC50 [15]: 1 µM
EC50 [3]: ≥ 10.1 µM
CC50 (CCRF-CEM): 21.1 µM
selectivity ratio [4]: 21
IC50 [14]: ≥ 600 µM
Activity (Human alphaherpesvirus 1): inactive
Activity (Human alphaherpesvirus 2): inactive
Activity (Vaccinia virus): inactive
Activity [5]: inactive
Activity (Human respirovirus 3): inactive
Activity [6]: inactive
Activity (Sindbis virus): inactive
Activity (Coxsackievirus B4 [7]): inactive
Activity (Punta Toro virus): inactive
Activity [8]: inactive
Activity [9]: inactive
Activity (Coxsackievirus B4 [10]): inactive
Activity (Feline coronavirus): inactive
Activity (Influenza A virus [11]): inactive
Activity (Influenza A virus [12]): inactive
Activity (Influenza B virus): inactive

O=C1CSC(c2c(Cl)cccc2Cl)N1CCC12CC3CC(CC(C3)C1)C2 (stereo unspecified)
IC50 [13]: 226 µM
EC50 [15]: 3.4 µM
EC50 [3]: ≥ 9.7 µM
CC50 (CCRF-CEM): 19 µM
selectivity ratio [4]: 5.5
IC50 [14]: > 600 µM
Activity (Human alphaherpesvirus 1): inactive
Activity (Human alphaherpesvirus 2): inactive
Activity (Vaccinia virus): inactive
Activity [5]: inactive
Activity (Human respirovirus 3): inactive
Activity [6]: inactive
Activity (Sindbis virus): inactive
Activity (Coxsackievirus B4 [7]): inactive
Activity (Punta Toro virus): inactive
Activity [8]: inactive
Activity [9]: inactive
Activity (Coxsackievirus B4 [10]): inactive
Activity (Feline coronavirus): inactive
Activity (Influenza A virus [11]): inactive
Activity (Influenza A virus [12]): inactive
Activity (Influenza B virus): inactive

CCN(CC)CCN1C(=O)CSC1CC12CC3CC(CC(C3)C1)C2 (stereo unspecified)
EC50 [15]: 30.8 µM
EC50 [3]: 46 µM
CC50 [16]: 43 µM
selectivity ratio [4]: < 1.4
Activity (Human alphaherpesvirus 1): inactive
Activity (Human alphaherpesvirus 2): inactive
Activity (Vaccinia virus): inactive
Activity [5]: inactive
Activity (Human respirovirus 3): inactive
Activity [6]: inactive
Activity (Sindbis virus): inactive
Activity (Coxsackievirus B4 [7]): inactive
Activity (Punta Toro virus): inactive
Activity [8]: inactive
Activity [9]: inactive
Activity (Coxsackievirus B4 [10]): inactive
Activity (Feline coronavirus): inactive
Activity (Influenza A virus [11]): inactive
Activity (Influenza A virus [12]): inactive
Activity (Influenza B virus): inactive

O=C1CSC(c2c(F)cccc2F)N1CCC12CC3CC(CC(C3)C1)C2 (stereo unspecified)
IC50 [13]: 31.7 µM
EC50 [15]: 2 µM
EC50 [3]: ≥ 4 µM
CC50 (CCRF-CEM): 7.9 µM
selectivity ratio [4]: 4
IC50 [14]: ≥ 600 µM
Activity (Human alphaherpesvirus 1): inactive
Activity (Human alphaherpesvirus 2): inactive
Activity (Vaccinia virus): inactive
Activity [5]: inactive
Activity (Human respirovirus 3): inactive
Activity [6]: inactive
Activity (Sindbis virus): inactive
Activity (Coxsackievirus B4 [7]): inactive
Activity (Punta Toro virus): inactive
Activity [8]: inactive
Activity [9]: inactive
Activity (Coxsackievirus B4 [10]): inactive
Activity (Feline coronavirus): inactive
Activity (Influenza A virus [11]): inactive
Activity (Influenza A virus [12]): inactive
Activity (Influenza B virus): inactive
